“Also recorded” adds a separate entry of the source. Like-named read-outs stand apart in the source and are kept apart here.
Assays:
[1] = tested on: 23 kDa heat shock protein gene promoter (hsp23-β-galactosidase hybrid gene); experiment: Drosophila heat shock hybrid gene expression assay (colorimetric beta-galactosidase assay) in primary embryonic cells from transformed flies; conditions: for FOLD INDUCTION OF B-GAL ACTIVITY: Experiment I, strain 700.2 embryonic cells, relative to nontreated cells
Text: A representative hybrid gene in accordance with the above description includes a 23 kDa heat shock protein gene fragment beginning at the Pst I site 1.5 kb upstream from and extending through the transcription start site and the entire RNA leader region to a Pvu II site at codon 45 of the 23 kDa protein coding sequence, inserted upstream from a truncated (at codon 7 or 8) E. coli β-galactosidase gene. It addition, a 2.4-kb-long segment containing 3' nontranslated and nontranscribed sequences from a D. melanogaster 70 kDa heat shock protein gene is placed downstream from the β-galactosidase gene.
For the experiments with teratogens described below, only the 700 lines (see Table 2) were used. These lines carry a hybrid gene controlled by a 554 nucleotide-long segment of the 23 kDa heat shock protein gene promoter.
Preparation of embryos, cultures of primary cells, and incubation with teratogens
1. A creamy paste of yeast is placed on a piece of wet filter paper and such coated paper: deposited on 150 mm food plates. Embryos are then collected on these plates for 3 hours (inside a large fly cage). (For additional details, see the appended Materials and Methods section.)
2. The plates with the embryos are incubated further for 3.5 hours (embryos will reach the gastrulation stage).
3. The filter paper containing yeast is discarded. The plates are flooded with water, the embryos are brushed down, passed through a 1 mm (pore size) mesh and then collected on a 90 μm mesh.
4. Embryos are washed extensively with water. Subsequently they are picked up with a spatula and are placed into a solution of 10 ml chlorox/10 ml ethanol (95%). After a brief incubation, the embryos are transferred to a sintered glass funnel attached to a vacuum line and are washed with several volumes of sterile distilled water, No more than 2 minutes should elapse between the first exposure of the embryos to chlorox-ethanol solution and the beginning of the wash steps.
5. The embryos are then washed in 6 ml of culture medium. It is important to note that the embryos are not allowed to dry out during the wash procedure.
6. The wet embryos are transferred with a blunt spatula into a homogenizer containing 7 ml of culture medium. (Alternatively, they can be washed down into the homogenizer with medium.)
7. Three gentle passes are made with the loose fitting pestle.
8. Cell aggregates are broken up by repeated pipetting with a 1 ml pipette, and the cell suspension is passed through a 53 μm mesh.
9. The filtrate is collected in a 15 ml sterile disposable centrifuge tube and spun at 1800 rpm for 4 minutes (at room temperature).
10. The supernatant is decanted, and the cells are washed once more with 4 ml of medium.
11. The cells are finally suspended in 4 ml medium by repeated pipetting with a 1 ml pipette and are counted on a hemocytometer.
12. The cells are plated in 35 mm dishes at a density of 3.2×10^6cells per 2 ml of medium.
13. Forty-five minutes later the medium is removed from each dish, and 2 ml of fresh medium containing the chemical to be tested for teratogenicity is added. The culture is then incubated at 22° C. for 20 hrs. […] The cells are subsequently processed for the β-galactosidase assay (see below).
1. Cells in 35 mm dishes are washed once with phosphate-buffered saline and are then transferred to 15 ml centrifuge tubes.
2. The cells are collected by centrifugation (clinical centrifuge, 2000 rpm, 5 min) and are taken up in 350 μl of Z buffer (defined below) containing 0.5% of Nonidet NP40. The cells are lysed by repeated pipetting. Lysates are transferred to 1.5 ml Eppendorf tubes.
3. After a 5 minute spin (in the Eppendorf centrifuge) the supernatants are transferred to another set of tubes.
4. To 200 μl of this extract, 275 μl of substrate solution ONPG (4 mg/ml) in Z-buffer is added. The assays are run with straight as well as with diluted extract samples.
5. The reactions are incubated at 37° C. for 30 min.

[2] = shown in animal experiments; cited from earlier work
[3] = tested on: 23 kDa heat shock protein gene promoter (hsp23-β-galactosidase hybrid gene) in S3 cells; experiment: Hybrid gene (23 kDa heat shock protein-β-galactosidase) activity in transfected S3 cells; type: cell-based, Drosophila melanogaster; conditions: for E. coli-specific B-galactosidase, + ecdysterone: 3 μM, ELISA
Text: The Drosophila melanogaster 23 kDa heat shock protein gene has been cloned and characterized by Voellmy et al. (Cell 23:261-270, 1981). Segments containing extensive 5' nontranscribed sequences from the 23 kDa heat shock protein gene, the RNA leader region, and part of the protein-coding region were linked in frame to an E. coli β-galactosidase gene. The resulting constructs encode a hybrid protein with β-galactosidase activity that is made under the control of the linked heat shock gene sequences (Lawson, R., et al., Dev. Biol. […], 1985). These constructs were introduced into Drosophila melanogaster S3 cells (an established cell line) by transfection (Lawson, R., et al., Mol. Gen. Genet. 198:116-124, 1984).
The construction of 23 kDa heat shock protein-β-galactosidase hybrid genes had been described (Lawson, R., et al., Dev. Biol. 110:321-330, 1985). The structure of a representative construct, p523/35, is shown in FIG. 4 (modified from Mestril, R., et al., EMBO J. 5(7):1667-1673, 1986). […] Hybrid gene activity was assessed in cell extracts both by a colorimetric enzymatic assay and by ELISA using antibodies specific for E. coli β-galactosidase (Lawson, R., et al., Dev. Biol. 110:321-330, 1985).
Derivatives of this basic construct that contained 23 kDa heat shock gene promoter sequences of different lengths were prepared, and their activity was tested using heat shock in transfected S3 cells (Mestril, R., et al., EMBO J. 4:2971-2976, Mestril, R., et al., EMBO J. 5:1667-1673, 1986).
A list of the cp20.1 derivatives of hybrid genes with 23 kDA heat shock protein gene promoter segments of different lengths is shown in Table 1. The functionality of the genes was tested in cultured Drosophila melanogaster S3 cells. Transfected cells were either heat-treated (not shown), exposed for one day at 3 μM ecdysterone, or not treated. Levels of β-galactosidase in extracts were measured by the ELISA procedure described in Mestril et al., EMBO J. 5:1667-1673, 1986.
Levels of Bgalactosidase were measured in cell extracts using the ELISA
protocol described in Mestril et al., 1986 (Mestril,R., Schiller,P.,
Amin,J., Klapper,H., Ananthan,J. and Voellmy,R. (1986) EMBO J.

[4] = use by pregnant women; cited from earlier work
[5] = tested on: small heat shock genes; conditions: ecdysterone added to the medium; Ireland et al. 1982; cited from earlier work
[6] = tested on: 23 kDa heat shock protein gene promoter (hsp23-β-galactosidase hybrid gene) in S3 cells; conditions: following exposure to ecdysterone; Lawson et al. 1985; Mestril et al.; cited from earlier work
[7] = Drosophila melanogaster, 20 h, read-out: FOLD INDUCTION OF B-GAL ACTIVITY
[8] = Drosophila melanogaster, 20 h, read-out: Fold Induction of B-Gal Activity

Nc1ncn([C@H]2C[C@H](O)[C@@H](CO)O2)c(=O)n1 [5-DEOXY-2' AZACYTIDINE]
FOLD INDUCTION OF B-GAL ACTIVITY ([1]; 0.01 mM, 20 hrs): 4 FOLD

CC(=O)Oc1ccccc1C(=O)O [ACETYL SALICYCLIC ACID]
CLASS (teratogen T / nonteratogen NT) [2]: weak T
FOLD INDUCTION OF B-GAL ACTIVITY ([1]; 1.0 mM, 20 hrs): 1.5 FOLD

O=[As](O)(O)O [ARSENATE]
FOLD INDUCTION OF B-GAL ACTIVITY ([1]; 0.2 mM, 20 hrs): 8 FOLD

O=c1ccc2ccccc2o1 [COUMARIN]
hybrid gene activity in S3 cells (in words) [3]: did not induce hybrid gene activity
fold induction at 1000 µM [1, 7]: 5

Cn1c(=O)c2c(ncn2C)n(C)c1=O [Caffeine]
fold induction at 1000 µM [1, 8]: 1.02

[Cl][Cd][Cl] [Cd Cl2]
FOLD INDUCTION OF B-GAL ACTIVITY ([1]; 0.25 mM, 20 hrs): 7 FOLD

CC/C(=C(/CC)c1ccc(O)cc1)c1ccc(O)cc1 [DIETHYL STILBOSTEROL]
fold induction at 10 µM [1, 7]: 7

C[S+](C)[O-] [DIMETHYL SULFOXIDE]
fold induction at 1000 µM [1, 7]: 1

O=C1NC(=O)C(c2ccccc2)(c2ccccc2)N1 [DIPHENYLHYDANTOIN, DIPHENYL-HYDANTOIN]
fold induction at 100 µM [1, 7]: 2

CCO [ETHYL ALCOHOL]
fold induction at 160000 µM [1, 7]: 1.2

[Cl][Hg][Cl] [Hg Cl2]
FOLD INDUCTION OF B-GAL ACTIVITY ([1]; 0.005 mM, 20 hrs): 3 FOLD

[Pb] [Lead]
Fold Induction of B-Gal Activity ([1]; Experiment II, 2.5 mM, 20 hrs, relative to nontreated cells (see Table 3)): 15.78 Fold
synthesis of β-galactosidase in primary embryonic cells (in words) ([1]; primary embryonic cells from transformed flies): directs the synthesis of β-galactosidase

CC(=O)[C@H]1CC[C@H]2[C@@H]3CCC4=CC(=O)CC[C@]4(C)[C@H]3CC[C@]12C [PROGESTERONE]
fold induction at 10 µM [1, 7]: 1

CC1=C(/C=C/C(C)=C/C=C/C(C)=C/C(=O)O)C(C)(C)CCC1 [RETINOIC ACID (ALL TRANS)]
fold induction at 50 µM [1, 7]: 5

O=C1CCC(N2C(=O)c3ccccc3C2=O)C(=O)N1 (stereo not shown) [Thalidomide]
synthesis of β-galactosidase in primary embryonic cells (in words) [1]: directs the synthesis of β-galactosidase
fold induction at 1000 µM [1, 8]: 2.73
babies suffering from phocomelia [4]: ~10,000 babies

CN1C(=O)CN=C(c2ccccc2)c2cc(Cl)ccc21 [Valium]
fold induction at 1000 µM [1, 8]: 6.5

CC(C)(O)CC[C@@H](O)[C@](C)(O)[C@H]1CC[C@@]2(O)C3=CC(=O)[C@@H]4C[C@@H](O)[C@@H](O)C[C@]4(C)[C@H]3CC[C@]12C [ecdysterone]
E. coli-specific B-galactosidase, + ecdysterone ([3]; 63 bp 5' nontranscribed segment, one day, 0.0 without ecdysterone): 0.1
E. coli-specific B-galactosidase, + ecdysterone ([3]; 147 bp 5' nontranscribed segment, one day): 0.1
E. coli-specific B-galactosidase, + ecdysterone ([3]; 197 bp 5' nontranscribed segment, one day): 0.1
E. coli-specific B-galactosidase, + ecdysterone ([3]; 275 bp 5' nontranscribed segment, one day): 0.3
E. coli-specific B-galactosidase, + ecdysterone ([3]; 295 bp 5' nontranscribed segment, one day): 0.6
E. coli-specific B-galactosidase, + ecdysterone ([3]; 333 bp 5' nontranscribed segment, one day, 0.0 without ecdysterone): 1.0
E. coli-specific B-galactosidase, + ecdysterone ([3]; 363 bp 5' nontranscribed segment, one day): 1.1
E. coli-specific B-galactosidase, + ecdysterone ([3]; 379 bp 5' nontranscribed segment, one day, 0.1 without ecdysterone): 2.0
E. coli-specific B-galactosidase, + ecdysterone ([3]; 554 bp 5' nontranscribed segment, one day): 1.0
hybrid gene activity of constructs (in words) ([3]; several constructs, longest promoter segments, 3 μM ecdysterone, one day, inactive in untreated cells): active
activation of the small heat shock genes (in words) [5]: activation of the genes
fold induction at 10 µM [1, 7]: 2
synthesis of β-galactosidase in transfected S3 cells (in words) [6]: produced E. coli-specific β-galactosidase; also recorded: directed the synthesis of β-galactosidase
